{"source": "paper PMC6155332", "about": "“Antimalarials with Benzothiophene Moieties as Aminoquinoline Partners” (Molecules : A Journal of Synthetic Chemistry and Natural …, 2017)", "key": {"P. berghei (ANKA)": {"system": "P. berghei (ANKA)", "experiment": "Modified Thompson test, P. berghei mouse efficacy", "assay_type": "in vivo, Plasmodium berghei", "settings": "for Parasitemia D18: day 18; for Parasitemia D21: day 21; for Parasitemia D25: day 25; for Parasitemia D28: day 28; for Parasitemia D11: day 11; for Mean Survival Time (MST, Days) / Mice Alive on Day 31 / Mice Dead/Day Died: infected mice", "experimental": "In a separate host toxicity study, benzothiophene 25 was subjected to in vivo toxicity evaluation. […]\nThe P. berghei (ANKA) mouse efficacy tests were conducted using a modified version of the Thompson test. Groups of five mice were inoculated intraperitoneally with erythrocytes infected with P. berghei on day 0. Drugs were suspended in 0.5% hydroxyethylcellulose-0.1% Tween 80 and administered orally once a day beginning on day 3 post infection. […] Cure was defined as survival (with no parasitemia) until day 31 post-treatment. Parasitemia was determined by thin-blood Giemsa-stained smears prepared from mice tail blood of each animal on days 0, 3, 6, 10, 13, 17, 20, 24, 27, and 31 (postinfection). The slides were examined under a light microscope."}, "healthy mice": {"system": "healthy mice", "experiment": "Host toxicity study in healthy mice", "assay_type": "in vivo", "settings": "groups of 5 healthy mice, 160 mg/kg/day × 3 days", "experimental": "In a separate host toxicity study, groups of five healthy mice were administered 160 mg/kg/day × 3 days of the investigational compounds and individually monitored for behavior and appearance two times a day for 31 days. No toxicity was defined as survival past day 31 with no overt clinical manifestations of toxicity (changes in behavior and appearance)."}, "β-hematin formation": {"system": "β-hematin formation", "experiment": "Inhibition of β-hematin formation (BHIA assay)", "assay_type": "biochemical", "settings": "molar equivalent of compound, relative to hemin, that inhibits β-hematin formation by 50%", "excerpt": "[33] The inhibition of β-hematin formation is expressed as the molar equivalent of compound, relative to hemin, that inhibits β-hematin formation by 50% and determined by slightly modified BHIA assay introduced by ParapiniS.BasilicoN.PasiniE.EganT.J.OlliaroP.TaramelliD.MontiD.Standardization of the physicochemical parameters to assess in vitro the beta-hematin inhibitory activity of antimalarial drugsExp. Parasitol.200096249256"}, "P. berghei DNA": {"system": "P. berghei DNA", "experiment": "qPCR of blood and liver of treated mice for Plasmodium 18S rRNA gene", "assay_type": "in vivo, Plasmodium berghei", "settings": "mice treated 160 mg/kg/day × 3 days, alive past day 31", "excerpt": "Briefly, genomic DNA was extracted from the blood and liver of experimental animals using the DNeasy blood and tissue kit (Qiagen, Hilden, Germany) according to the manufacturer’s instructions. The primers and corresponding TaqMan (Applied BioSystems. Foster City, CA, USA) probe amplify and detect a highly conserved region of the 18S rRNA gene of the genus Plasmodium. Pure P. berghei gDNA samples were used as positive controls.\nGenomic DNA was extracted from the blood and liver of experimental animals using the DNeasy blood and tissue kit (Qiagen, Hilden, Germany) according to the manufacturer’s instructions. Briefly, mice alive past day 31 with complete parasite clearance were sacrificed. Next, between 300 and 500 μL of blood was removed after heart puncture and the organs were removed, rinsed with dPBS and homogenized. The liver was homogenized using mechanical disruption and then subjected to proteinase K digestion. Approximately 100 μL of sample was used per each spin column for gDNA extraction.\nBriefly, the primers and corresponding TaqMan probe amplify and detect a highly conserved region of the 18S rRNA gene of the genus Plasmodium. The primer and probe sequences were as follows: forward primer Plasmo 1: 5-[…] TCAGA-3; reverse primer Plasmo 2: 5-[…] TCATAA-3; TaqMan probe Plasprobe: 5-FAM-[…] GACTAG-TAMRA-3. […]"}, "[1]": {"system": "P. falciparum D6 (CQ susceptible (CQS) strain)", "design": "method as in PMID 26640981, PMID 25801154", "settings": "previously reported compounds; ref [27],[28]; cited from earlier work"}, "[2]": {"system": "P. falciparum W2 (CQ resistant (CQR) strain)", "design": "method as in PMID 26640981", "settings": "previously reported compounds; ref [27]; cited from earlier work"}, "[3]": {"system": "HepG2 (hepatocellular carcinoma) cell line", "design": "method as in PMID 26640981", "settings": "previously reported compounds; ref [27]; cited from earlier work"}, "[4]": {"settings": "20 mg/kg/day p.o., days 3–6 postinfection"}, "[5]": {"settings": "40 mg/kg/day p.o., days 3–6 postinfection"}, "[6]": {"settings": "80 mg/kg/day p.o., days 3–6 postinfection"}, "[7]": {"settings": "160 mg/kg/day p.o., days 3–5 postinfection"}}, "note": "Values joined by “and” are separate entries in the source; they are usually repeats but may differ in a detail not shown here. Identical values can stand only once."}
{"compound": "Clc1ccc2c(NCCCCNCc3csc4ccccc34)ccnc2c1", "note": "[Compound 1]", "values": [{"measurement": "Parasitemia D18", "setting": "P. berghei (ANKA); 20 mg/kg/day p.o. days 3–6", "result": 6, "unit": "%"}, {"measurement": "Parasitemia D21", "setting": "P. berghei (ANKA); 20 mg/kg/day p.o. days 3–6", "result": 27, "unit": "%"}, {"measurement": "Parasitemia D25", "setting": "P. berghei (ANKA); 20 mg/kg/day p.o. days 3–6", "result": 63, "unit": "%"}, {"measurement": "Parasitemia D28", "setting": "P. berghei (ANKA); 20 mg/kg/day p.o. days 3–6", "result": 66, "unit": "%"}, {"measurement": "Cure (4 days therapy)", "setting": "P. berghei (ANKA); 20 mg/kg/day", "result": "no cure"}, {"measurement": "Parasitemia D7", "setting": "P. berghei (ANKA); 40 mg/kg/day p.o. days 3–6, day 7, positive mice", "result": 5, "unit": "mice negative"}, {"measurement": "Parasitemia D11", "setting": "P. berghei (ANKA); 40 mg/kg/day p.o. days 3–6", "result": "no detectable parasitemia and 5 mice negative"}, {"measurement": "Parasitemia D18", "setting": "P. berghei (ANKA); 40 mg/kg/day p.o. days 3–6", "result": 2.2, "unit": "%"}, {"measurement": "Parasitemia D21", "setting": "P. berghei (ANKA); 40 mg/kg/day p.o. days 3–6", "result": 7.3, "unit": "%"}, {"measurement": "Parasitemia D25", "setting": "P. berghei (ANKA); 40 mg/kg/day p.o. days 3–6", "result": 37, "unit": "%"}, {"measurement": "Parasitemia D28", "setting": "P. berghei (ANKA); 40 mg/kg/day p.o. days 3–6", "result": 53, "unit": "%"}, {"measurement": "Parasitemia D7", "setting": "P. berghei (ANKA); 80 mg/kg/day p.o. days 3–6, day 7, positive mice", "result": 4, "unit": "mice negative"}, {"measurement": "Parasitemia D11", "setting": "P. berghei (ANKA); 80 mg/kg/day p.o. days 3–6", "result": 4, "unit": "mice negative"}, {"measurement": "Parasitemia D18", "setting": "P. berghei (ANKA); 80 mg/kg/day p.o. days 3–6", "result": 2.3, "unit": "%"}, {"measurement": "Parasitemia D7", "setting": "P. berghei (ANKA); 160 mg/kg/day p.o. days 3–5, day 7", "result": "cleared all parasites"}, {"measurement": "Parasitemia D31", "setting": "P. berghei (ANKA); 160 mg/kg/day p.o. days 3–5, day 31 (end of study)", "result": "parasite negative"}, {"measurement": "Parasitemia D7–D31", "setting": "P. berghei (ANKA); 160 mg/kg/day p.o. days 3–5, days 7–31", "result": 5, "unit": "mice negative"}, {"measurement": "Parasite clearance in dose response test", "setting": "P. berghei (ANKA); 80, 40 and 20 mg/kg/day p.o. for 4 days, starting day 3 postinfection", "result": "did not clear the parasites"}, {"measurement": "Cure (4 days therapy)", "setting": "P. berghei (ANKA); 80 and 40 mg/kg/day, clearance with recrudescence on D11-14", "result": "no cure"}, {"measurement": "Mice cured (modified Thompson test, 3 days therapy)", "setting": "P. berghei (ANKA); P. berghei infected mice, 160 mg/kg/day × 3 days p.o.", "result": "5/5"}, {"measurement": "Mean Survival Time (MST, Days)", "setting": "P. berghei (ANKA); [4]", "result": 16.8, "unit": "days"}, {"measurement": "Mice Alive on Day 31", "setting": "P. berghei (ANKA); [4]", "result": "0/5"}, {"measurement": "Mice Dead/Day Died", "setting": "P. berghei (ANKA); 20 mg/kg/day p.o., days 3–6 postinfection, 20 mg/kg/day", "result": "2/11 and 1/14 and 1/18 and 1/30"}, {"measurement": "Mean Survival Time (MST, Days)", "setting": "P. berghei (ANKA); [5]", "result": 19.4, "unit": "days"}, {"measurement": "Mice Alive on Day 31", "setting": "P. berghei (ANKA); [5]", "result": "0/5"}, {"measurement": "Mice Dead/Day Died", "setting": "P. berghei (ANKA); 40 mg/kg/day p.o., days 3–6 postinfection, 40 mg/kg/day", "result": "1/30 and 1/15 and 1/16 and 2/18"}, {"measurement": "Mean Survival Time (MST, Days)", "setting": "P. berghei (ANKA); [6]", "result": 18.2, "unit": "days"}, {"measurement": "Mice Alive on Day 31", "setting": "P. berghei (ANKA); [6]", "result": "0/4"}, {"measurement": "Mice Dead/Day Died", "setting": "P. berghei (ANKA); 80 mg/kg/day p.o., days 3–6 postinfection, 80 mg/kg/day", "result": "3/18 and 1/19"}, {"measurement": "Mean Survival Time (MST, Days)", "setting": "P. berghei (ANKA); [7]", "result": ">31", "unit": "days"}, {"measurement": "Mice Alive on Day 31", "setting": "P. berghei (ANKA); [7]", "result": "5/5"}, {"measurement": "Mice survived in host toxicity study", "setting": "healthy mice", "result": "5/5"}, {"measurement": "IC50 of inhibition of β-hematin formation", "setting": "β-hematin formation", "result": 0.34, "unit": "molar equivalent"}, {"measurement": "P. berghei DNA in blood and tissue samples (qPCR)", "setting": "P. berghei DNA", "result": "negative"}, {"measurement": "IC50", "setting": "[1]", "result": 8, "unit": "nM"}, {"measurement": "IC50", "setting": "[2]", "result": 31, "unit": "nM"}, {"measurement": "SI(HepG2/D6)", "setting": "[3]", "result": 282}]}
